In US20180344735A1, “USE OF sGC STIMULATORS FOR THE TREATMENT OF GASTROINTESTINAL SPHINCTER DYSFUNCTION” (Ironwood Pharmaceuticals, Inc., priority 2015, published 2018):
Each block holds one compound with its values, some of them ahead of it.

Columns and labels:
[1] = system: human lower esophageal sphincter (LES) tissues; assay: Ex vivo relaxation of carbachol-pre-contracted human lower esophageal sphincter (LES) muscle strips, organ bath; type: cell-based
Procedure: The objective of this study was to determine the relaxation effects of two sGC stimulators, Compound A and Compound B (depicted below) on human lower esophageal sphincter (LES) tissues ex vivo. Human lower esophageal sphincter muscle strips were mounted in a wire myograph apparatus and pre-contracted with carbachol (Cch). A cumulative concentration response curve (CCRC) of Compound A and Compound B was then performed on the tissues. The concentration response was performed with the compounds alone, and/or with the test compounds in the presence of a fixed concentration of the NO donor DETA-NONOate.
Compound A and Compound B were stored at room temperature. On each experimental day, 10 mM stock of the test compound was prepared in DMSO. Further dilutions up to 0.1 μM were made serially in ethanol, and subsequently in distilled water, depending on solubility of the compounds in those solvents. Compound A and Compound B Vehicle solutions were made by following the same serial dilution methods
DETA-NONOate was stored at −20° C. On each experimental day, a stock solution of 100 mM was prepared in Phosphate Buffered Saline (PBS), pH 8 (Boston Bioproducts). A 1:10 dilution from the stock was made in PBS pH 8, to obtain a concentration of 10 mM.
SNP was stored at −20° C. On each experimental day, a stock solution of 100 mM was prepared in distilled water. 25 μl of the 100 mM stock was added to each bath for a final concentration of 100 μM in bath.
Tissues were obtained postmortem. Only macroscopically normal tissue that was obtained from donors with no known recent history of gastrointestinal disease.
Human LES mucosa-free muscle strips, of approximately 15 mm in length and 2-3 mm width were dissected free from surrounding tissue and mounted on tissue posts in 25 mL organ baths (Panlab 16 channel automated organ bath and thermostatic controller) containing physiological saline solution (PSS; composition: 119.0 mM NaCl, 4.70 mM KCl, 1.20 mM MgSO4, 24.9 mM NaHCO3, 1.20 mM KH2PO4, 2.50 mM CaCl2, 11.1 mM glucose), aerated with 95% O2/5% CO2, warmed and maintained at approximately 37° C. The PSS solution was supplemented with 1 μM indomethacin. The LES strips were mounted on the tissue posts and allowed to equilibrate for approximately 30 minutes.
The LES strips were set to a tension of 2.0 g+0.2 g. Baths were washed approximately every 15 minutes over a 60-minute period, with re-tensioning to 2.0±0.2 g if tension dropped below 1.0 g.
The viability of the LES muscle strips was tested by application of 80 mM KCl, looking for maximum contractility response. Upon plateau all baths were washed three times with PSS and the tension was allowed to return to baseline levels. The strips that responded to the KCl functional check were used for CCh-induced contractions.
For each one of compounds A and B, experiments were conducted with LES tissues from two human donors on two separate days.
Upon stabilization of baseline tension, each of the following experiments was allocated to one bath such that 9 or more muscle strips were set up for each compound on each experimental day.
Compound A Experiments with tissues from Donor 1: • 1. CCRC to DETA-NO vehicle • 2. CCRC to Compound A vehicle • 3. CCRC to DETA-NO • 4. CCRC to DETA-NO • 5. CCRC to Compound A • 6. CCRC to Compound A • 7. Since DETA-NO relaxed LES, a CCRC to Compound A was performed in the presence of DETA-NO at a sub-threshold concentration (1 μM, determined in conditions 3 and 4) • 8. CCRC to Compound A in the presence of DETA-NO ([…]) • 9. CCRC to Compound A vehicle in the presence of DETA-NO ([…]).
Compound A Experiments with tissues from Donor 2: • 1. CCRC to Compound A vehicle • 2. CCRC to Compound A vehicle • 3. CCRC to Compound A vehicle in the presence of 10 μM DETA-NO • 4. CCRC to Compound A vehicle in the presence of 30 μM DETA-NO • 5. CCRC to Compound A • 6. CCRC to Compound A • 7. CCRC to Compound A in the presence of 10 μM DETA-NO • 8. CCRC to Compound A in the presence of 10 μM DETA-NO • 9. […]

achalasia patients = conditions: report from 2000; cited from earlier work
[2] = 10 μM compound in the presence of 30 μM DETA-NO
[3] = in the presence of 30 μM DETA-NO

SMILES: OC(CNc1nc(-c2cc(-c3ccon3)n(Cc3ccccc3F)n2)ncc1F)(C(F)(F)F)C(F)(F)F [Compound A]
relaxation ([1]; 10 μM compound in the presence of 1 μM DETA-NO, donor 1): 16%
maximum relaxation ([1]; 10 μM compound in the presence of 10 μM DETA-NO, donor 2, N=4): 38%
maximum relaxation ([1]; 10 μM compound, absence of NO, first donor, N=2): 49%
maximum relaxation ([1]; 10 μM compound, absence of NO, second donor, N=2): 31%
maximum relaxation ([1]; in the presence of 30 μM DETA-NO, donor 2, N=3): 51%

EC50 [1, 3]: 1700 nM
SMILES: NC(=O)[C@](O)(CNc1nc(-c2cc(-c3ccon3)n(Cc3ccccc3F)n2)ncc1F)C(F)(F)F [Compound B]
maximum relaxation relative to isoprenaline [1, 2]: 77%
maximum relaxation relative to isoprenaline ([1]; 10 μM compound, absence of NO, N=8): 47%

EC50 [1, 3]: 500 nM
SMILES: COC(=O)N(C)c1c(N)nc(-c2nn(Cc3ccccc3F)c3ncccc23)nc1N [Compound C]
maximum relaxation relative to isoprenaline [1, 2]: 90%

EC50 [1, 3]: 1600 nM
SMILES: C[C@@]1(C(F)(F)F)C(=O)Nc2nc(-c3nn(Cc4ncccc4F)c4ncc(F)cc34)nc(NCCC(F)(F)F)c21 [Compound D]
maximum relaxation relative to isoprenaline [1, 2]: 80%

EC50 [1, 3]: 530 nM
SMILES: Fc1ccccc1Cn1nc(-c2nc(C(F)(F)F)n[nH]2)c2cccnc21 [Compound E]
maximum relaxation relative to isoprenaline [1, 2]: 89%

SMILES: NCCN(CCN)/[N+]([O-])=N/O [DETA-NO, diethylenetriamine/NO, reference compound]
mean percentage relaxation ([1]; 10 μM DETA-NO alone, second donor, N=5): 8%
mean relaxation relative to isoprenaline ([1]; 30 μM DETA-NO alone, Compound B experiments, N=12): 7.6%
mean percentage relaxation ([1]; 30 μM DETA-NO alone, second donor, N=4): 13%

SMILES: CCCc1nn(C)c2c(=O)[nH]c(-c3cc(S(=O)(=O)N4CCN(C)CC4)ccc3OCC)nc12 [sildenafil]
effect on LES pressure (achalasia patients): able to reduce LES pressure
effect on clinical symptoms (achalasia patients): clinical symptoms were not improved
